Assay results: ChEMBL document CHEMBL3797063, “Evaluation of N-substituent structural variations in opioid receptor profile of LP1” (Bioorg Med Chem, 2016)
Calls of active or inactive are those of the source. The rule behind the calls is not given here.

Assays:
Mu-type opioid receptor [1] = biological target: Mu-type opioid receptor (Rattus norvegicus, UniProt P33535); assay: Displacement of [3H]-DPN from rat MOR expressed in EE-HEK293 cell membranes by liquid scintillation counting
[2] = biological target: Delta-type opioid receptor (Rattus norvegicus, UniProt P33533); assay: Displacement of [3H]-DPN from rat DOR expressed in EE-HEK293 cell membranes by liquid scintillation counting
Chain of Delta-type opioid receptor (Rattus norvegicus, UniProt P33533) (P33533 whole entry): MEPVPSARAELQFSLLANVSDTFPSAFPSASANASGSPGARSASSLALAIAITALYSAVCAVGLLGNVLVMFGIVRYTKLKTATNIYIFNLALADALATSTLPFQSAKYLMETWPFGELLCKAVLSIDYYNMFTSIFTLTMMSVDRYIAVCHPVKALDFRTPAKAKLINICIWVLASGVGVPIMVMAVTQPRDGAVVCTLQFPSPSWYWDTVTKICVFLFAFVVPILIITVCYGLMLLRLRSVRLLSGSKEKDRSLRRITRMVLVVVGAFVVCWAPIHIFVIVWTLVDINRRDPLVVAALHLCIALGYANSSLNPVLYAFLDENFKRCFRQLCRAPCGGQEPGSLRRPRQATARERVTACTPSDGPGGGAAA

[3] = biological target: T1, Kappa-type opioid receptor (Homo sapiens, UniProt P41145); assay: Displacement of [3H]-DPN from human KOR expressed in EE-HEK293 cell membranes by liquid scintillation counting
T1 sequence (P41145 whole entry): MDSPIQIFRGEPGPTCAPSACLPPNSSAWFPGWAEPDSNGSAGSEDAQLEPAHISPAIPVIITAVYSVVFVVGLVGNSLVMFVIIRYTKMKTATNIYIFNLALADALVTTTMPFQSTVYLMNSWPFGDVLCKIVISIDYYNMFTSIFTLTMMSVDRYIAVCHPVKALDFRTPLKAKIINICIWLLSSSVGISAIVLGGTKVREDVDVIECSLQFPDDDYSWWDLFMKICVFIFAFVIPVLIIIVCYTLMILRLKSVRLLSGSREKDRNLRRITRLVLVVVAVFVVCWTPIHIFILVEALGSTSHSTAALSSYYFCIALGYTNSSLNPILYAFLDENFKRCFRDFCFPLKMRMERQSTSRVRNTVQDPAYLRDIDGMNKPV

Rattus norvegicus = organism: Rattus norvegicus; assay: Selectivity index, ratio of Ki for rat DOR to Ki for rat MOR
[4] = Selectivity index, ratio of Ki for human KOR to Ki for rat MOR
[5] = biological target: T2, Delta-type opioid receptor (Mus musculus, UniProt P32300); assay: Antagonist activity at DOR in CD1 mouse vas deferens assessed as reduction in DPDPE-induced inhibition of EFS-evoked contractions incubated for 60 mins; type: tissue-based; settings: read-out: pA2 (converted)
T2 sequence (P32300 whole entry): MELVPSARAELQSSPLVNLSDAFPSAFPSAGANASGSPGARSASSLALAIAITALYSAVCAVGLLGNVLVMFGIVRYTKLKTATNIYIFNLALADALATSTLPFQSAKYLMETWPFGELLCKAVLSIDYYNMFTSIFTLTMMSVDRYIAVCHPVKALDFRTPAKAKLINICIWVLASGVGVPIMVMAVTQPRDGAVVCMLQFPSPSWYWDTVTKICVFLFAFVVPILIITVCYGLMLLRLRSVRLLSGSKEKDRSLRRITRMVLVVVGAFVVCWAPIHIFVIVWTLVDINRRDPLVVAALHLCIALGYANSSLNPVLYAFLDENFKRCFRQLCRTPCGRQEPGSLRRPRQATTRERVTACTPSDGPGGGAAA

Mu-type opioid receptor [6] = biological target: T3, Mu-type opioid receptor (Cavia porcellus, UniProt P97266); assay: Agonist activity at MOR in Dunkin-Hartley guinea pig ileum assessed as inhibition of EFS-induced contractions incubated for 60 mins
T3 sequence (P97266 whole entry): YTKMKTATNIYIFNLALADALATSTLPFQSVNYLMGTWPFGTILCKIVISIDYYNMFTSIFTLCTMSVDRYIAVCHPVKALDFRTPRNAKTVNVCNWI

[7] = biological target: Delta-type opioid receptor (Mus musculus) (UniProt P32300); assay: (§1) Agonist activity at DOR in CD1 mouse vas deferens assessed as inhibition of EFS-induced contractions incubated for 60 mins; type: tissue-based
Chain of Delta-type opioid receptor (Mus musculus) (P32300 whole entry): as the sequence (P32300 whole entry) above

[8] = biological target: T2, Delta-type opioid receptor; assay: as §1; type: tissue-based
Mu-type opioid receptor [9] = biological target: T3, Mu-type opioid receptor; assay: Antagonist activity at MOR in Dunkin-Hartley guinea pig ileum assessed as reduction in DAMGO-induced inhibition of EFS-induced contractions incubated for 60 mins; type: tissue-based; settings: read-out: pA2 (converted)
[10] = biological target: T1, Kappa-type opioid receptor; assay: Activity at human KOR expressed in EE-HEK293 cells assessed as pEC50 for effect on (-)U50,488H-induced response (reference value: […] +/- […]); type: cell-based
Mus musculus [11] = assay: Effect on basal tail flick latencies in Swiss […] mouse at 1 to 15 mg/kg, sc during 90 mins by tail flick test; type: ADME, organism-based; settings: in vivo, 1.5 h
Mus musculus [12] = assay: Reduction in morphine-induced antinociceptive effect in sc dosed Swiss […] mouse assessed as tail flick latencies dosed 45 mins before 5 mg/kg, sc morphine injection by tail flick test; type: ADME, organism-based; settings: in vivo, 0.75 h

Chain of Mu-type opioid receptor (Rattus norvegicus, UniProt P33535) (P33535 whole entry): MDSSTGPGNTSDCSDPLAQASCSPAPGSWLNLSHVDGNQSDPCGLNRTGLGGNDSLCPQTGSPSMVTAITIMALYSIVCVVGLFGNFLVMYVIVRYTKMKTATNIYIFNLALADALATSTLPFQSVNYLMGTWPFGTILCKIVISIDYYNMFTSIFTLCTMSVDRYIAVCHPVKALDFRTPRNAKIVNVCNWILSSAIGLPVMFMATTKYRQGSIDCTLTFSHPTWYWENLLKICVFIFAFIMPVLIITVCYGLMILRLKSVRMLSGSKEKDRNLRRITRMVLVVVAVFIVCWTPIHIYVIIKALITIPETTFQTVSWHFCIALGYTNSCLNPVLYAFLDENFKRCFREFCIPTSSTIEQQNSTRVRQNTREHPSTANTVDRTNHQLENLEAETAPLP

Structure (SMILES)	Ki (Mu-type opioid receptor [1]) [nM]	Ki [2] [nM]	Ki [3] [nM]	Ratio Ki (Rattus norvegicus)	Ratio Ki [4]	Kb [5] [nM]	EC50 (Mu-type opioid receptor [6]) [nM]	Activity [7]	EC50 [8] [µM]	Kb (Mu-type opioid receptor [9]) [nM]	EC50 [10] [µM]	Activity (Mus musculus [11])	AD50 (Mus musculus [12]) [mg/kg]	Activity (Mus musculus [12])
C[C@H]1[C@H]2Cc3ccc(O)cc3[C@]1(C)CCN2CCC(=O)Nc1ccc2ncccc2c1	4560	330	4400	0.07	1	–	–	–	–	–	–	–	–	–
C[C@H]1[C@H]2Cc3ccc(O)cc3[C@]1(C)CCN2CCC(=O)Nc1ccccc1	–	–	–	0.67	153	63.1	794	inactive	–	–	–	–	–	–
C[C@H]1[C@H]2Cc3ccc(O)cc3[C@]1(C)CCN2CCC(=O)Nc1cccc2cnccc12	50	180	2900	3.6	58	–	20000	–	158	–	–	–	–	–
C[C@H]1[C@H]2Cc3ccc(O)cc3[C@]1(C)CCN2CCC(=O)Nc1cccc2cccnc12	3410	540	230	0.16	0.07	–	–	–	–	–	–	–	–	–
C[C@H]1[C@H]2Cc3ccc(O)cc3[C@]1(C)CCN2CCC(=O)Nc1cccc2ncccc12	3190	310	1540	0.1	0.5	–	–	–	–	–	–	–	–	–
C[C@H]1[C@H]2Cc3ccc(O)cc3[C@]1(C)CCN2CCC(=O)Nc1cccc2ccccc12	38	210	800	5.5	21.1	25.1	–	inactive	–	2.51	10	Non-toxic	2	Dose-dependent effect
C[C@H]1[C@H]2Cc3ccc(O)cc3[C@]1(C)CCN2CCC(=O)Nc1cnc2ccccc2c1	1190	740	6470	0.62	5.4	–	–	–	–	–	–	–	–	–
C[C@@H](NC(=O)[C@@H](N)Cc1ccc(O)cc1)C(=O)NCC(=O)N(C)[C@@H](Cc1ccccc1)C(=O)NCCO [DAMGO]	–	–	–	–	–	–	158	–	–	–	–	–	–	–
